In patent publication US20250206761A1, “HALOINDOLE MACROCYCLIC COMPOUNDS FOR THE TREATMENT OF CANCER” (Hoffmann-La Roche Inc., priority 2022, published 2025):

Assays:
[1] = tested on: NCI-H358 (ATCC-CRL5807) cells; test: Cell viability assay, G12C (NCI-H358); type: cell-based, human; settings: Homo sapiens; KRAS cell viability, NCI-H358, 72 hrs, Cell Counting Kit-8
How it was run: (§1)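 Cells were seeded at 5,000 cells/well (NCI-H358) or 2,000 cells/well (AGS, SW620), incubated overnight, then treated with compounds in 0.5% DMSO final for 72 hrs. CCK-8 was added and OD450 minus OD650 read after 2 hrs; IC50 came from a 4-parameter sigmoidal fit.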

[2] = tested on: AGS (ATCC-CRL-1739) cells; test: Cell viability assay, G12D (AGS); type: cell-based, human; settings: Homo sapiens, KRAS cell viability, 72 hrs, Cell Counting Kit-8
How it was run: as §1

[3] = tested on: SW620 (ATCC-CCL-227); test: Cell viability assay, G12V (SW620); type: cell-based, human; settings: Homo sapiens, SW-620; KRAS cell viability, SW620, 72 hrs, Cell Counting Kit-8
How it was run: as §1

[4] = target: KRAS G12C-BRAF complex (Homo sapiens (Human), UniProt P01116+P62937, G12C); test: KRAS G12C-BRAF NanoBit assay; type: cell-based; settings: HEK293 cells, 3 hours of incubation
How it was run: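 Stable HEK293 pool co-expressing SmBit-KRAS G12C and BRAF RBD-LgBit; 10,000 cells/well incubated 3 h with compound, 16-point 3-fold dilution from 30 μM final. Live-cell Nano-Glo substrate added, luminescence read at 20 min; disruption seen as luminescence decrease vs DMSO.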

[5] = target: KRAS G12V binding to BRAF (Homo sapiens (Human), UniProt P01116+P62937, G12V); test: KRAS-BRAF with CYPA (500 nM) interaction assay (TR-FRET), G12V; type: biochemical
How it was run: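 A TR-FRET assay measured how compound, in the presence of CYPA, disrupts binding of GMPPNP-loaded 6His-KRAS G12V to BRAF. The buffer contained 25 mM HEPES PH=7.4, 0.002% Tween20, 0.1% BSA, 100 mM NaCl, 5 mM MgCl2 and 10 μM GMPPNP. Compounds ran as a 16-point 3-fold dilution series from 10 μM for 3 hours.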

[6] = tested on: phosphorylation of ERK, KRAS G12C in NCJ-H358 cells; test: pERK inhibition assay, KRAS G12C; type: cell-based, human; settings: Homo sapiens, 4 hours
How it was run: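 Cells in RPMI-1640 with 10% FBS were plated overnight (NCJ-H358 30,000, AGS 20,000, SW620 30,000 cells/well), then exposed to compounds in 0.5% DMSO for 4 h. Fixed, methanol-permeabilized cells were probed for pERK by HRP-based in-cell ELISA with TMB, OD450; IC50 from 4-parameter sigmoidal fit.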

Sequence of KRAS G12C-BRAF complex (P01116-2 other isoform, or with tags, fused parts or gaps G12C): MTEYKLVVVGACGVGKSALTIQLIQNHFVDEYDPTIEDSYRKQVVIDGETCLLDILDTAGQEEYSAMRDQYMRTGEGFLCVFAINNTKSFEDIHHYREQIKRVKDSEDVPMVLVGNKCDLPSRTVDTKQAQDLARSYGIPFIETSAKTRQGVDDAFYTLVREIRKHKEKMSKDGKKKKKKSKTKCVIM
Sequence of KRAS G12C-BRAF complex (P62937 whole entry): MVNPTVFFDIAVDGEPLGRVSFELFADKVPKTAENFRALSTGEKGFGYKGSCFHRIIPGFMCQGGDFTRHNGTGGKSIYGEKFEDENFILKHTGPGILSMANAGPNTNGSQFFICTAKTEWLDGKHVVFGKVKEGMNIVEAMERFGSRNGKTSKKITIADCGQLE
Sequence of KRAS G12V binding to BRAF (P01116-2 other isoform, or with tags, fused parts or gaps G12V): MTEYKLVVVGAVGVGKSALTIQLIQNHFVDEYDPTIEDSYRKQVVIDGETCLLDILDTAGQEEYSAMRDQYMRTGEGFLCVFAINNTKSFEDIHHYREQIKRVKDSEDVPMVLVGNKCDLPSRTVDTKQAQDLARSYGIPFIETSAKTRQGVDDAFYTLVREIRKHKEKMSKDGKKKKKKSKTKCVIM
Sequence of KRAS G12V binding to BRAF (P62937 whole entry): as the sequence (P62937 whole entry) above

SMILES | IC50 [1] | IC50 [2] | IC50 [3] | IC50 [4] | IC50 [5] | IC50 [6]
CCn1c(-c2cc(N3CCOCC3)cnc2[C@H](C)OC)c2c3cc(c(F)cc31)-c1csc(n1)C[C@H](NC(=O)[C@H](C(C)C)N1CCC3(CN(C(=O)[C@H](F)Cl)C3)C1=O)C(=O)N1CCC[C@H](N1)C(=O)OCC(C)(C)C2 (atropisomer, axis not shown; (M)) [Example 52, (2S)-2-[2-[(2R)-2-chloro-2-fluoro-acetyl]-5-oxo-2,6-diazaspiro[3.4]octan-6-yl]-N-[(7S,13S)-21-ethyl-24-fluoro-(20M)-20-[2-[(1S)-1-methoxyethyl]-5-morpholino-3-pyridyl]-17,17-dimethyl-8,14-dioxo-15-oxa-4-thia-9,21,27,28-tetrazapentacyclo[17.5.2.1^2,5.1^9,13.0^22,26]octacosa-1(25),2,5(28),19,22(26),23-hexaen-7-yl]-3-methyl-butanamide] | < 1 nM | 4720 nM | 196 nM | 70 nM | > 10000 nM | 4 nM
CCn1c(-c2cc(N3CCOCC3)cnc2[C@H](C)OC)c2c3cc(c(F)cc31)-c1csc(n1)C[C@H](NC(=O)[C@H](C(C)C)N1CC[C@@]3(CCN(C(=O)[C@H](F)Cl)C3)C1=O)C(=O)N1CCC[C@H](N1)C(=O)OCC(C)(C)C2 (atropisomer, axis not shown; (M)) [Example 53, (2S)-2-[(5R)-7-[(2R)-2-chloro-2-fluoro-acetyl]-1-oxo-2,7-diazaspiro[4.4]nonan-2-yl]-N-[(7S,13S)-21-ethyl-24-fluoro-(20M)-20-[2-[(1S)-1-methoxyethyl]-5-morpholino-3-pyridyl]-17,17-dimethyl-8,14-dioxo-15-oxa-4-thia-9,21,27,28-tetrazapentacyclo[17.5.2.1^2,5.1^9,13.0^22,26]octacosa-1(25),2,5(28),19,22(26),23-hexaen-7-yl]-3-methyl-butanamide] | < 1 nM | 1320 nM | 932 nM | 17 nM | > 10000 nM | 3 nM
CCn1c(-c2cc(N3CCOCC3)cnc2[C@H](C)OC)c2c3cc(c(F)cc31)-c1csc(n1)C[C@H](NC(=O)[C@H](C(C)C)N(C)C(=O)C1(F)CCN(C(=O)[C@H](F)Cl)CC1)C(=O)N1CCC[C@H](N1)C(=O)OCC(C)(C)C2 (atropisomer, axis not shown; (M)) [Example 54, 1-[(2R)-2-chloro-2-fluoro-acetyl]-N-[(1S)-1-[[(7S,13S)-21-ethyl-24-fluoro-(20M)-20-[2-[(1S)-1-methoxyethyl]-5-morpholino-3-pyridyl]-17,17-dimethyl-8,14-dioxo-15-oxa-4-thia-9,21,27,28-tetrazapentacyclo[17.5.2.1^2,5.1^9,13.0^22,26]octacosa-1(25),2,5(28),19,22(26),23-hexaen-7-yl]carbamoyl]-2-methyl-propyl]-4-fluoro-N-methyl-piperidine-4-carboxamide] | < 1 nM | 72 nM | 13 nM | 3 nM | 217 nM | 2 nM
CCn1c(-c2cc(N3CCOCC3)cnc2[C@H](C)OC)c2c3cc(c(F)cc31)-c1csc(n1)C[C@H](NC(=O)[C@H](C(C)C)N(C)C(=O)[C@H]1CCN(C(=O)[C@H](F)Cl)C1)C(=O)N1CCC[C@H](N1)C(=O)OCC(C)(C)C2 (atropisomer, axis not shown; (M)) [Example 55, (3S)-1-[(2R)-2-chloro-2-fluoro-acetyl]-N-[(1S)-1-[[(7S,13S)-21-ethyl-24-fluoro-(20M)-20-[2-[(1S)-1-methoxyethyl]-5-morpholino-3-pyridyl]-17,17-dimethyl-8,14-dioxo-15-oxa-4-thia-9,21,27,28-tetrazapentacyclo[17.5.2.1^2,5.1^9,13.0^22,26]octacosa-1(25),2,5(28),19,22(26),23-hexaen-7-yl]carbamoyl]-2-methyl-propyl]-N-methyl-pyrrolidine-3-carboxamide] | < 3 nM | 848 nM | 155 nM | 10 nM | 2110 nM | 6 nM
CO[C@@H](C)c1ncc(N2CCN(C)CC2)cc1-c1c2c3cc(c(F)cc3n1CC(F)(F)F)-c1csc(n1)C[C@H](NC(=O)[C@H](C(C)C)N1CCC[C@@]3(CCN(C(=O)[C@H](F)Cl)C3)C1=O)C(=O)N1CCC[C@H](N1)C(=O)OCC(C)(C)C2 (single isomer, unassigned) [Example 16] | < 1 nM | 2650 nM | 22 nM | 8 nM | > 10000 nM | 1 nM
CO[C@@H](C)c1ncc(N2CCN(C)CC2)cc1-c1c2c3cc(c(F)cc3n1CC(F)(F)F)-c1csc(n1)C[C@H](NC(=O)[C@H](C(C)C)N1CCC[C@]3(CCN(C(=O)[C@H](F)Cl)C3)C1=O)C(=O)N1CCC[C@H](N1)C(=O)OCC(C)(C)C2 (single isomer, unassigned) [Example 18] | 1 nM | 3700 nM | 19 nM | 12 nM | 3330 nM | 3 nM
CC(C)[C@@H](C(=O)N[C@H]1Cc2cc(O)cc(c2)-c2ccc3c(C(C)(C)C#N)cn(c3c2)CC(C)(C)COC(=O)[C@@H]2CCCN(N2)C1=O)N1CCC2(CN(C(=O)CCl)C2)C1=O [RM44, reference compound] | 799 nM | 6230 nM | > 10000 nM | 11700 nM | > 10000 nM | 1900 nM
